Reference: PubChem BioAssay AID248 (DTP/NCI, 2004)
Inconclusive results and toxic doses are left out.

System: L1210 leukemia ip in BDF1 mice, survival T/C
Test: NCI In Vivo Anticancer Drug Screen. Data for tumor model L1210 Leukemia (intraperitoneal) in B6D2F1 (BDF1) mice
Conditions: endpoint: mean survival time, higher = longer survival
How it was run: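 Mice bearing the transplanted tumor received compound or vehicle. Survival of the treated group was divided by that of the vehicle-treated control group to give the ratio.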

With O=C(Nc1cc(NC(=O)Oc2ccccc2)cc([N+](=O)[O-])c1)Oc1ccccc1 the T/C (dose: 100.0 mg/kg/injection, schedule: Q04DX003 (ip), vehicle: saline with Tween-80) was 96 % of control, the T/C (dose: 200.0 mg/kg/injection, schedule: Q04DX003 (ip), vehicle: saline with Tween-80) was 103 % of control and the T/C (dose: 400.0 mg/kg/injection, schedule: Q04DX003 (ip), vehicle: saline with Tween-80) was 88 % of control.

In the case of COCCNC(=O)N(CCOC)N=O, the T/C (dose: 9.0 mg/kg/injection, schedule: Q01DX001 (ip), vehicle: saline) was 101 % of control, the T/C (dose: 13.0 mg/kg/injection, schedule: Q01DX001 (ip), vehicle: saline) was 96 % of control and the T/C (dose: 26.0 mg/kg/injection, schedule: Q01DX001 (ip), vehicle: saline) was 102 % of control. The T/C (dose: 40.0 mg/kg/injection, schedule: Q01DX001 (ip), vehicle: saline) was 104 % of control, the T/C (dose: 60.0 mg/kg/injection, schedule: Q01DX001 (ip), vehicle: saline) was 102 % of control and the T/C (dose: 93.0 mg/kg/injection, schedule: Q01DX001 (ip), vehicle: saline) was 95 % of control. For the same compound, the T/C (dose: 187.0 mg/kg/injection, schedule: Q01DX001 (ip), vehicle: saline) was 112 % of control, the T/C (dose: 250.0 mg/kg/injection, schedule: Q01DX001 (ip), vehicle: saline) was 113 % of control and the T/C (dose: 500.0 mg/kg/injection, schedule: Q01DX001 (ip), vehicle: saline) was 112 % of control.

O=NN(CCCl)C(=O)Nc1ccc(F)cc1 was tested, and the T/C (dose: 9.37 mg/kg/injection, schedule: Q01DX001 (ip), vehicle: carboxymethylcellulose (CMC)) was 150 % of control, the T/C (dose: 12.5 mg/kg/injection, schedule: Q01DX001 (ip), vehicle: carboxymethylcellulose (CMC)) was 162 % of control and the T/C (dose: 18.75 mg/kg/injection, schedule: Q01DX001 (ip), vehicle: carboxymethylcellulose (CMC)) was 171 % of control. For the same compound, the T/C (dose: 25.0 mg/kg/injection, schedule: Q01DX001 (ip), vehicle: carboxymethylcellulose (CMC)) was 253 % of control and the T/C (dose: 37.5 mg/kg/injection, schedule: Q01DX001 (ip), vehicle: carboxymethylcellulose (CMC)) was 171 % of control.

N#CCC(=O)NCc1ccncc1 was tested, and the T/C (dose: 100.0 mg/kg/injection, schedule: Q01DX001 (ip), vehicle: carboxymethylcellulose (CMC)) was 95 % of control, the T/C (dose: 100.0 mg/kg/injection, schedule: Q04DX003 (ip), vehicle: carboxymethylcellulose (CMC)) was 95 % of control and the T/C (dose: 200.0 mg/kg/injection, schedule: Q01DX001 (ip), vehicle: carboxymethylcellulose (CMC)) was 106 % of control. The T/C (dose: 200.0 mg/kg/injection, schedule: Q04DX003 (ip), vehicle: carboxymethylcellulose (CMC)) was 96 % of control, the T/C (dose: 400.0 mg/kg/injection, schedule: Q01DX001 (ip), vehicle: carboxymethylcellulose (CMC)) was 108 % of control and the T/C (dose: 400.0 mg/kg/injection, schedule: Q04DX003 (ip), vehicle: carboxymethylcellulose (CMC)) was 91 % of control.

With CCCC#CCOCC1CO1 (stereo not drawn) the T/C (dose: 100.0 mg/kg/injection, schedule: Q01DX009 (ip), vehicle: saline) was 93 % of control, the T/C (dose: 100.0 mg/kg/injection, schedule: Q04DX003 (ip), vehicle: saline sonified) was 98 % of control and the T/C (dose: 200.0 mg/kg/injection, schedule: Q01DX009 (ip), vehicle: saline) was 89 % of control. The T/C (dose: 200.0 mg/kg/injection, schedule: Q04DX003 (ip), vehicle: saline sonified) was 109 % of control, the T/C (dose: 400.0 mg/kg/injection, schedule: Q01DX009 (ip), vehicle: saline) was 91 % of control and the T/C (dose: 400.0 mg/kg/injection, schedule: Q04DX003 (ip), vehicle: saline sonified) was 104 % of control.

With C=CCc1cn(C2OC(COC(=O)c3ccccc3)C(OC(=O)c3ccccc3)C2OC(=O)c2ccccc2)c(=O)[nH]c1=O (stereo not drawn) the T/C (dose: 12.5 mg/kg/injection, schedule: Q01DX005 (ip), vehicle: saline) was 92 % of control, the T/C (dose: 12.5 mg/kg/injection, schedule: Q01DX009 (ip), vehicle: saline) was 95 % of control and the T/C (dose: 25.0 mg/kg/injection, schedule: Q01DX005 (ip), vehicle: saline) was 92 % of control. The T/C (dose: 25.0 mg/kg/injection, schedule: Q01DX009 (ip), vehicle: saline) was 95 % of control, the T/C (dose: 50.0 mg/kg/injection, schedule: Q01DX005 (ip), vehicle: saline) was 94 % of control and the T/C (dose: 50.0 mg/kg/injection, schedule: Q01DX009 (ip), vehicle: saline) was 98 % of control.

O=C(NC(Cc1ccccc1)C(=O)CBr)OCc1ccccc1 (stereo not drawn) was tested, and the T/C (dose: 100.0 mg/kg/injection, schedule: Q01DX001 (ip), vehicle: saline with Tween-80) was 103 % of control.

For COc1cccc(CCCCO)c1, the T/C (dose: 50.0 mg/kg/injection, schedule: Q01DX009 (ip), vehicle: saline with Tween-80) was 91 % of control and the T/C (dose: 100.0 mg/kg/injection, schedule: Q01DX009 (ip), vehicle: saline with Tween-80) was 91 % of control.
